# Source: patent US20180125796A1, “TREATMENT OF MYCOBACTERIAL INFECTION” (priority 2015, published 2018)
# Tested on: NPC1
# Format: cell-based, Chinese Hamster
substance,measurement,setting,value
trehalose dimycolate [TDM],resistance to phenotype induction by TDM versus extent of NPC1 overexpression,,cells over-expressing NPC1 by 15-fold were more resistant than those over-expressing NPC1 5-fold
same,"induction of NPC cellular phenotypes by TDM in CHO cells overexpressing NPC1, versus wild-type cells",FIG. 10B,more resistant to induction of NPC cellular phenotypes than wild-type cells
